Columns and labels:
[1] = Inhibition of PGPH activity of 20S proteasome in human K562 cells using Z-nLPnLDaminoluciferin as substrate after 2 hrs by luminescence assay
[2] = Inhibition of trypsin-like activity of 20S proteasome in human K562 cells using Z-LRRaminoluciferin as substrate after 2 hrs by luminescence assay

CC(C)C[C@H](NC(=O)[C@H](Cc1ccccc1)NC(=O)N1C/C(=C\c2ccc(F)cc2)C(=O)/C(=C/c2ccc(F)cc2)C1)B(O)O
IC50 [1]: > 100 µM
IC50 [2]: > 100 µM

Reference: BindingDB's records for doi:10.1016/j.bmcl.2018.06.004 (Peking University, 2018)
